# Data as given in PubChem BioAssay AID2060510 (Molecular Pharmacology Branch, DTP, NCI, 2025).
# Test system: 439559-082-T-J2-PDC spheroids viability
# Assay: Anticancer human tumor 439559-082-T-J2-PDC patient-derived colon adenocarcinoma cell line growth inhibition [GQUAD]
# Conditions: for IC50: curve of first compound; for viability, T/C: stronger effect = lower value
# Source text: DNA G-quadruplex Stabilizer Agents in Combinations in Complex Spheroids
# A high-throughput screen of multi-cell type tumor spheroids was designed to identify active combinations of DNA G-quadruplex stabilizer agents and targeted small molecules. Complex spheroids include a stromal component modeled by human endothelial cells (HUVEC) and fibroblasts modeled by human mesenchymal stem cells (MSCs). The concentration ranges selected for each drug and investigational agent were based upon clinically achievable concentrations if the clinical Cmax of the agent was known.
# Compounds. The drugs and investigational agents: pidnarulex (CX-5461; NSC782164), APTO-253 (NSC789042), BRACO-19 (NSC847499), peposertib (NSC802822), ceralasertib (NSC780249), elimusertib (NSC800525), camonsertib (NSC841442), AZD-1390 (NSC803789), olaparib (NSC753686), talazoparib (NSC767125), ART-558 (NSC835418), sotorasib (NSC818433), MRTX-1133 (NSC836407), SN-38 (NSC673596), topotecan (NSC609699), etoposide (NSC141540), doxorubicin (NSC123127), gemcitabine (NSC613327), 5-fluorouracil (NSC19893), paclitaxel (NSC125973), vemurafenib (NSC761431), panobinostat (NSC761190), R-306465 (JNJ-16241199; NSC773264), adavosertib (NSC754352), TP-3654 (NSC805149), carboplatin (NSC241240), KSQ-4279 (NSC840948), and staurosporine (NSC755774) were obtained from the National Cancer Institute (NCI) Developmental Therapeutics Program Chemical Repository (34). The FDA-approved anticancer drug set is available from the NCI Developmental Therapeutics Program. […] The stock solutions were prepared in dimethyl sulfoxide (DMSO, Sigma-Aldrich, St. Louis, MO, cat. D2650) at 800-fold the tested concentration and stored at -70 degrees C prior to their use. All drugs and investigational agents were tested over a range starting from a high concentration at or near the clinical Cmax and decreasing in half-log increments. If the clinical Cmax for an agent had not been determined, the highest concentration tested was 10 microM.
# 2.3 Cell Culture. All cells were maintained in an incubator at 37 degrees C and 5% CO2 with 95% humidity. The PDC lines were cultured according to standard operating procedures established by the NCI PDMR. All PDCs were thawed and cultured in Matrigel-coated flasks prepared with a working solution of 1X Ham's F-12 nutrient mix, without supplementation (Invitrogen, cat. 11765054), 100 U/mL penicillin-streptomycin (Invitrogen, cat. 15140122), and 2.5% Matrigel (Corning Inc., cat. 354248) for the first three passages. The 857933-349-R-J2-PDC line was cultured in 6C/Colon 1B media, which includes advanced DMEM/F-12 (Thermo Fisher Scientific, cat. 12634028), 10 mM HEPES (Thermo Fisher Scientific, cat. 15630080), 1X GlutaMAX supplement (Thermo Fisher Scientific, cat. 35050061), 0.1 mg/mL primocin (InvivoGen, cat. ant-pm-2), 10% defined fetal bovine serum, heat inactivated (HyClone Laboratories Inc., cat. SH30070.03HI), 50% L-WRN conditioned media (ATCC, cat. CRL-3276), 1.25 mM N-Acetyl-L-cysteine (Sigma-Aldrich, cat. A9165), 10 mM nicotinamide (Sigma-Aldrich, cat. N0636), 1X B-27 supplement (Thermo Fisher Scientific, cat. 17504044), 1X N-2 supplement (Thermo Fisher Scientific, cat. 17502048), 10 microM Y-27632 dihydrochloride (Tocris Bioscience, cat. 1254), and 50 ng/mL human EGF recombinant protein (Thermo Fisher Scientific, cat. PHG0311). The 485176-168-R4-J1-PDC line was cultured in Panc media, which includes all 6C/Colon 1B media components plus 100 ng/mL human FGF-10 (Thermo Fisher Scientific, cat. 100-26), 500 nM SB-431542 (Selleckchem, cat. S1067), and gastrin (Tocris, cat. 3006).
# […]
# [1] = second compound 0.0316 µM, first compound 0.0316 µM
# [2] = second compound 0.0316 µM, first compound 0.1 µM
# [3] = second compound 0.0316 µM, first compound 0.316 µM
# [4] = second compound 0.0316 µM, first compound 1 µM
# [5] = second compound 0.0316 µM, first compound 3.16 µM
# [6] = second compound 0.0316 µM, first compound 10 µM
# [7] = second compound 0.1 µM, first compound 0.0316 µM
# [8] = second compound 0.1 µM, first compound 0.1 µM
# [9] = second compound 0.1 µM, first compound 0.316 µM
# [10] = second compound 0.1 µM, first compound 1 µM
# [11] = second compound 0.1 µM, first compound 3.16 µM
# [12] = second compound 0.1 µM, first compound 10 µM
# [13] = second compound 0.316 µM, first compound 0.0316 µM
# [14] = second compound 0.316 µM, first compound 0.1 µM
# [15] = second compound 0.316 µM, first compound 0.316 µM
# [16] = second compound 0.316 µM, first compound 1 µM
# [17] = second compound 0.316 µM, first compound 3.16 µM
# [18] = second compound 0.316 µM, first compound 10 µM
# [19] = second compound 1 µM, first compound 0.0316 µM
# [20] = second compound 1 µM, first compound 0.1 µM
# [21] = second compound 1 µM, first compound 0.316 µM
# [22] = second compound 1 µM, first compound 1 µM
# [23] = second compound 1 µM, first compound 3.16 µM
# [24] = second compound 1 µM, first compound 10 µM
# [25] = second compound 3.16 µM, first compound 0.0316 µM
# [26] = second compound 3.16 µM, first compound 0.1 µM
# [27] = second compound 3.16 µM, first compound 0.316 µM
# [28] = second compound 3.16 µM, first compound 1 µM
# [29] = second compound 3.16 µM, first compound 3.16 µM
# [30] = second compound 3.16 µM, first compound 10 µM
# [31] = second compound 10 µM, first compound 0.0316 µM
# [32] = second compound 10 µM, first compound 0.1 µM
# [33] = second compound 10 µM, first compound 0.316 µM
# [34] = second compound 10 µM, first compound 1 µM
# [35] = second compound 10 µM, first compound 3.16 µM
# [36] = second compound 10 µM, first compound 10 µM
# 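Note: spheroids exposed to the agents for 7 days before readout.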
# 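Throughout, for viability, T/C: percent of luminescence signal in DMSO vehicle wells taken as 100% viability.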
smiles,measurement,setting,value
Nc1ccn(C2OC(CO)C(O)C2(F)F)c(=O)n1 (stereo unspecified) + Cc1[nH]c2ccc(F)cc2c1-c1nc2c3cccnc3c3ncccc3c2[nH]1,IC50,second compound 0.0316 µM,375 nM
same,IC50,second compound 0.1 µM,468 nM
same,IC50,second compound 0.316 µM,362 nM
same,IC50,second compound 1 µM,304 nM
same,IC50,second compound 3.16 µM,203 nM
same,IC50,second compound 10 µM,211 nM
same,"viability, T/C",[1],84.5%
same,"viability, T/C",[2],76.7%
same,"viability, T/C",[3],51.8%
same,"viability, T/C",[4],34.9%
same,"viability, T/C",[5],26.7%
same,"viability, T/C",[6],25.9%
same,"viability, T/C",[7],92.7%
same,"viability, T/C",[8],71.9%
same,"viability, T/C",[9],59%
same,"viability, T/C",[10],36.9%
same,"viability, T/C",[11],29.5%
same,"viability, T/C",[12],23.3%
same,"viability, T/C",[13],98.8%
same,"viability, T/C",[14],73.6%
same,"viability, T/C",[15],47.8%
same,"viability, T/C",[16],41.3%
same,"viability, T/C",[17],28.6%
same,"viability, T/C",[18],23.7%
same,"viability, T/C",[19],82.8%
same,"viability, T/C",[20],67.8%
same,"viability, T/C",[21],50.4%
same,"viability, T/C",[22],32.8%
same,"viability, T/C",[23],27.6%
same,"viability, T/C",[24],22.6%
same,"viability, T/C",[25],73.3%
same,"viability, T/C",[26],65.1%
same,"viability, T/C",[27],38.6%
same,"viability, T/C",[28],31%
same,"viability, T/C",[29],26.4%
same,"viability, T/C",[30],17.5%
same,"viability, T/C",[31],73.2%
same,"viability, T/C",[32],66.2%
same,"viability, T/C",[33],40.9%
same,"viability, T/C",[34],27%
same,"viability, T/C",[35],26.2%
same,"viability, T/C",[36],19%
CC1COCCN1c1cc(-c2ccnn2C)c2ccnc(-c3ccn[nH]3)c2n1 (stereo unspecified) + Cc1cnc(CNC(=O)c2c(=O)c3ccc(N4CCCN(C)CC4)nc3n3c2sc2ccccc23)cn1,IC50,second compound 0.0316 µM,176 nM
same,IC50,second compound 0.1 µM,123 nM
same,IC50,second compound 0.316 µM,80.9 nM
same,IC50,second compound 1 µM,71.5 nM
same,IC50,second compound 3.16 µM,46.8 nM
same,IC50,second compound 10 µM,37.3 nM
same,"viability, T/C",[1],85.7%
same,"viability, T/C",[2],62.4%
same,"viability, T/C",[3],37.3%
same,"viability, T/C",[4],31.8%
same,"viability, T/C",[5],33.6%
same,"viability, T/C",[6],30%
same,"viability, T/C",[7],91.6%
same,"viability, T/C",[8],53%
same,"viability, T/C",[9],36.4%
same,"viability, T/C",[10],27.6%
same,"viability, T/C",[11],40%
same,"viability, T/C",[12],28.1%
same,"viability, T/C",[13],74.4%
same,"viability, T/C",[14],43.8%
same,"viability, T/C",[15],33.9%
same,"viability, T/C",[16],34.1%
same,"viability, T/C",[17],32.9%
same,"viability, T/C",[18],24.4%
same,"viability, T/C",[19],66.3%
same,"viability, T/C",[20],43.4%
same,"viability, T/C",[21],33.2%
same,"viability, T/C",[22],30%
same,"viability, T/C",[23],32%
same,"viability, T/C",[24],26.1%
same,"viability, T/C",[25],57.6%
same,"viability, T/C",[26],33.4%
same,"viability, T/C",[27],31.4%
same,"viability, T/C",[28],31.6%
same,"viability, T/C",[29],27.4%
same,"viability, T/C",[30],19.9%
same,"viability, T/C",[31],52.9%
same,"viability, T/C",[32],35%
same,"viability, T/C",[33],32.5%
same,"viability, T/C",[34],25.9%
same,"viability, T/C",[35],27.3%
same,"viability, T/C",[36],20.3%
CC(=O)O[C@H]1C(=O)[C@@]2(C)[C@H]([C@H](OC(=O)c3ccccc3)[C@]3(O)C[C@H](OC(=O)[C@H](O)[C@@H](NC(=O)c4ccccc4)c4ccccc4)C(C)=C1C3(C)C)[C@]1(OC(C)=O)CO[C@@H]1C[C@@H]2O + CN(C)c1ccc(Nc2c3ccc(NC(=O)CCN4CCCC4)cc3nc3cc(NC(=O)CCN4CCCC4)ccc23)cc1,IC50,second compound 0.0316 µM,2030 nM
same,IC50,second compound 0.1 µM,1830 nM
same,IC50,second compound 0.316 µM,2040 nM
same,IC50,second compound 1 µM,1790 nM
same,IC50,second compound 3.16 µM,2180 nM
same,IC50,second compound 10 µM,1360 nM
same,"viability, T/C",[1],84.8%
same,"viability, T/C",[2],77.7%
same,"viability, T/C",[3],74.5%
same,"viability, T/C",[4],62.8%
same,"viability, T/C",[5],41.7%
same,"viability, T/C",[6],29.9%
same,"viability, T/C",[7],85.1%
same,"viability, T/C",[8],83.7%
same,"viability, T/C",[9],74.2%
same,"viability, T/C",[10],60.9%
same,"viability, T/C",[11],40.3%
same,"viability, T/C",[12],31.6%
same,"viability, T/C",[13],84%
same,"viability, T/C",[14],82.3%
same,"viability, T/C",[15],69.7%
same,"viability, T/C",[16],60.4%
same,"viability, T/C",[17],44%
same,"viability, T/C",[18],30.7%
same,"viability, T/C",[19],76.2%
same,"viability, T/C",[20],82.9%
same,"viability, T/C",[21],70%
same,"viability, T/C",[22],64%
same,"viability, T/C",[23],36.9%
same,"viability, T/C",[24],28.9%
same,"viability, T/C",[25],82.1%
same,"viability, T/C",[26],84.6%
same,"viability, T/C",[27],78.9%
same,"viability, T/C",[28],65.8%
same,"viability, T/C",[29],42.5%
same,"viability, T/C",[30],26.7%
same,"viability, T/C",[31],73.5%
same,"viability, T/C",[32],73.9%
same,"viability, T/C",[33],86.2%
same,"viability, T/C",[34],56.6%
same,"viability, T/C",[35],36.7%
same,"viability, T/C",[36],27%
